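Briefly, cells in 96-well plates were exposed to five compound concentrations for 48 h, and endpoints were estimated by linear interpolation. The concentration for 50% growth inhibition is given as GI50. TGI is the concentration that stops growth completely.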

Holding throughout (assay): DTP human tumour cell line panel, 48 h
Assay [1] relates to A498 renal.
For assay [2], the system named is HCC-2998 colon.
Assay [3] concerns IGROV1 ovarian.
Assay [4] deals with K-562 leukemia.
Assay [5] deals with RPMI-8226 leukemia.
For assay [6], the system named is RXF 393 renal.
For assay [7], the system named is SF-268 CNS.
The subject of assay [8] is SK-MEL-28 melanoma.
In assay [9] the test system is SK-MEL-5 melanoma.
Assay [10] concerns SNB-75 CNS.

As for `COC1CCC2C(NS(=O)(=O)c3ccc(C)cc3)CCCC2O1` (stereo not given) (tested in a mixture with another compound), the TGI in [1] was over 34.5 µM; in [2] it was over 34.5 µM; in assay [3], over 34.5 µM; in assay [4], 27.8 µM; in [5], 14.7 µM; in [6] it was over 34.5 µM. For the same molecule, the TGI in assay [7] is over 34.5 µM; in assay [8], over 34.5 µM; in assay [9] it was 19.4 µM; in [10], over 34.5 µM.
Consider `CO[C@H](C(=O)[C@@H](O)[C@@H](C)O)[C@@H]1Cc2cc3cc(O[C@H]4C[C@@H](O[C@H]5C[C@@H](O)[C@H](O)C(C)O5)[C@H](O)C(C)O4)c(C)c(O)c3c(O)c2C(=O)[C@H]1O[C@H]1C[C@@H](O[C@H]2C[C@@H](O[C@H]3C[C@](C)(O)C(=O)C(C)O3)[C@@H](O)C(C)O2)[C@H](O)C(C)O1` (stereo not given in full), for which the GI50 in assay [1] was 0.0185 µM; in assay [2], 0.222 µM; in [3], 0.132 µM; in assay [4], 0.1 µM; in assay [5] it was 0.1 µM; in [6], 0.0515 µM. The GI50 in assay [7] is 0.065 µM; in [8], 0.053 µM; in assay [9], 0.0385 µM; in assay [10] it was 0.045 µM. The TGI in [1] is 0.147 µM; in assay [2], 1.72 µM; in assay [3], over 33.2 µM; in [4], over 33.2 µM; in [5] it was 1.61 µM; in assay [6] it was 0.119 µM. Also, the TGI in assay [7] was over 33.2 µM; in [8], 0.203 µM; in [9] it was 0.136 µM; in [10] it was 0.211 µM.
As to `CC/C=C\CCC/C=C1/C(=O)C=C[C@@H]1C/C=C\CCCC(=O)OC`, the GI50 in assay [1] is 19.8 µM; in assay [2], 2.3 µM; in assay [3], 3.3 µM; in assay [4], 2.46 µM; in assay [5], 2.93 µM; in assay [6], 2.6 µM. Moreover, the GI50 was 4.79 µM in assay [7], 3.25 µM in [8], 1.88 µM in assay [9] and 13.7 µM in assay [10]. Also, the TGI in [1] was 34.7 µM; in assay [2] it was 4.02 µM; in [3], 11.5 µM; in assay [4], 11.6 µM; in assay [5], 8.15 µM; in [6] it was 6.02 µM. The TGI in assay [7] is 22.1 µM; in [8] it was 10.3 µM; in [9], 3.5 µM; in assay [10] it was 28.5 µM.
Consider `O=C(COc1ccc(Br)cc1Br)N1N=C(c2ccc([N+](=O)[O-])o2)CC1(O)c1ccccc1` (stereo not given), for which the TGI is 23.8 µM in assay [1]; 23.1 µM in assay [2]; 75.9 µM in assay [3]; over 100 µM in [4]; 8.96 µM in assay [5]; 15.7 µM in assay [6]. Further, the TGI in assay [7] was determined as 36 µM; in assay [8], 28 µM; in [9], 16.1 µM; in assay [10] it was 45 µM.
In the case of `CCCCCCCCCCCCCCCCCC(CCCCCCCCCCCCCCCCC)OP(=O)(O)O`, the TGI in assay [1], in [2], in [3], in assay [4], in assay [5] and in assay [6] was over 100 µM in each case. The TGI in [7], in assay [8], in assay [9] and in [10] was over 100 µM throughout.
Take `CC(C)=CC(=O)C1c2cccc(O)c2C(=O)c2c(O)cc(C)cc21` (stereo not given): the TGI in assay [1] was 37.3 µM; in assay [2], 5.67 µM; in assay [3], 4.76 µM; in [4], over 100 µM; in assay [5] it was 30.4 µM; in [6], 4.39 µM. Moreover, the TGI turned out to be 5.3 µM in assay [7], 9.04 µM in [8], 4.06 µM in assay [9] and 4.68 µM in [10].
Regarding `CCOc1ccc(NC(=O)C(=O)CC(=O)c2c[n+](=O)c3cc(C)c(C)cc3n2[O-])cc1`, the TGI in [1], in [2], in [3], in [4], in assay [5] and in assay [6] was over 100 µM in each case. In addition, the TGI in [7], in assay [8], in assay [9] and in [10] was over 100 µM each time.
Take `COc1cc(-c2nn(-c3ccc(NC(=O)c4ccc(Cl)c(C(F)(F)F)c4)cc3)cc2-c2ccncc2)ccc1Cl`: the GI50 in assay [1] is 2.4 µM; in assay [2] it was 3.22 µM; in assay [3], 3.96 µM; in assay [4] it was 1.81 µM; in assay [5], 1.79 µM; in [6] it was 0.461 µM. The GI50 in [7] is 4.03 µM; in assay [8], 2.62 µM; in [9] it was 1.66 µM; in assay [10], 1.23 µM. Further, the TGI in assay [1] was 17.9 µM; in assay [2], over 100 µM; in [3], over 100 µM; in [4] it was 5.67 µM; in [5] it was 6.47 µM; in [6] it was 1.61 µM. For the same molecule, the TGI was over 100 µM in assay [7], over 61.9 µM in [8], 3.15 µM in assay [9] and 6.83 µM in [10].
`Cn1cc(C2=C(c3cn(C)c4ncccc34)C(=O)NC2=O)c2ccccc21`: the GI50 was 3.73 µM in assay [1]; over 21.2 µM in [2]; 15.5 µM in assay [3]; 6.99 µM in [4]; 9.04 µM in [5]; 3.8 µM in [6]. In addition, the GI50 in assay [7] is 9.13 µM; in assay [8], 8.56 µM; in assay [9], 6.27 µM; in assay [10] it was 0.669 µM. In addition, the TGI in [1] was 11 µM; in assay [2], over 25 µM; in assay [3], over 25 µM; in assay [4] it was over 25 µM; in assay [5] it was over 23.2 µM; in assay [6], 10.7 µM. Besides, the TGI in assay [7] is over 25 µM; in assay [8], over 25 µM; in assay [9], over 17.6 µM; in assay [10], over 23.6 µM.

For orientation: TGI means the concentration giving total growth inhibition. Low readings indicate more potent growth arrest, high ones less potent growth arrest. For orientation: GI50 means the concentration that inhibits growth by half.

Values taken from PubChem BioAssay (NCI).
